# Experimental data as given in ChEMBL document CHEMBL4725259 (Bioorg Med Chem, 2020).
# Key:
# Format in all cases: cell-based
# [1] = biological target: D(2) dopamine receptor (Homo sapiens) (UniProt P14416); test: Antagonist activity at human DRD2L expressed in CHO-K1 cells at 20 uM by PathHunter beta-arrestin assay relative to control; details: filed as antagonist
# [2] = biological target: T1, CX3C chemokine receptor 1 (Homo sapiens, UniProt P49238); test: Antagonist activity at human CX3CR1 expressed in CHO-K1 cells by PathHunter beta-arrestin assay
# T1 sequence (P49238 whole entry): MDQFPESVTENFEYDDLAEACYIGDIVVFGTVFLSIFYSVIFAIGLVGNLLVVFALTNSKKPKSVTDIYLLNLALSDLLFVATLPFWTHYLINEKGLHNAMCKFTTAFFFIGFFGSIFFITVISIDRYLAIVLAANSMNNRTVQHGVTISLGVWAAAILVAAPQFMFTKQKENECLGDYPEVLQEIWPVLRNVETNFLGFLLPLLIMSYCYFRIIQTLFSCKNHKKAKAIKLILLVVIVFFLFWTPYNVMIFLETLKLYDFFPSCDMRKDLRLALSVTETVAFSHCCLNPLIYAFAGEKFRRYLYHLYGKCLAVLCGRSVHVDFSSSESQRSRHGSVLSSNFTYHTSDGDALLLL
# [3] = biological target: C-X-C chemokine receptor type 4 (Homo sapiens, UniProt P61073); test: Antagonist activity at human CXCR4 expressed in mouse C2C12 cells by PathHunter beta-arrestin assay
# Chain of C-X-C chemokine receptor type 4 (P61073 whole entry): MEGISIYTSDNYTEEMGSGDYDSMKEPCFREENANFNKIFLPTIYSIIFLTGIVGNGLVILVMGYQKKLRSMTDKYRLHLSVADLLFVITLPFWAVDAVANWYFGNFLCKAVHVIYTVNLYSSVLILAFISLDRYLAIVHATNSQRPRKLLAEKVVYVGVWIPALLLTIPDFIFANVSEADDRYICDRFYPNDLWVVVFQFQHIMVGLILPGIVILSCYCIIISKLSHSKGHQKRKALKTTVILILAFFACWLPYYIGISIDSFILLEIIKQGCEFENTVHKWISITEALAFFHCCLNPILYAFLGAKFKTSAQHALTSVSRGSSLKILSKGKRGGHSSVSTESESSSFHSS
# [4] = biological target: T2, 5-hydroxytryptamine receptor 2C (Homo sapiens, UniProt P28335); test: Antagonist activity at HTR2C in human U2OS cells by PathHunter beta-arrestin assay
# T2 sequence (P28335 whole entry): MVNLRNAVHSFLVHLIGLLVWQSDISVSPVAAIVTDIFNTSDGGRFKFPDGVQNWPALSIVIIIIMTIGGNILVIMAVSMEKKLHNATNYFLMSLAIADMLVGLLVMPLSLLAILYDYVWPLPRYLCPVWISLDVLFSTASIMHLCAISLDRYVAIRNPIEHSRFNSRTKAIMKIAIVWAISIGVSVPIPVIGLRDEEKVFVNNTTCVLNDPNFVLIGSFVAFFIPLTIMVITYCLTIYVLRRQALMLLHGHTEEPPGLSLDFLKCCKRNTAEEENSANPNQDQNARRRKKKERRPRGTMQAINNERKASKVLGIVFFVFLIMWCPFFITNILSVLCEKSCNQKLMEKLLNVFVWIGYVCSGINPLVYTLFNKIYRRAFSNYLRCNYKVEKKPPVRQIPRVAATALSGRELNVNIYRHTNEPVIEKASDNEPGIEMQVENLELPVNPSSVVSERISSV
# Chain of D(2) dopamine receptor (Homo sapiens) (P14416 whole entry): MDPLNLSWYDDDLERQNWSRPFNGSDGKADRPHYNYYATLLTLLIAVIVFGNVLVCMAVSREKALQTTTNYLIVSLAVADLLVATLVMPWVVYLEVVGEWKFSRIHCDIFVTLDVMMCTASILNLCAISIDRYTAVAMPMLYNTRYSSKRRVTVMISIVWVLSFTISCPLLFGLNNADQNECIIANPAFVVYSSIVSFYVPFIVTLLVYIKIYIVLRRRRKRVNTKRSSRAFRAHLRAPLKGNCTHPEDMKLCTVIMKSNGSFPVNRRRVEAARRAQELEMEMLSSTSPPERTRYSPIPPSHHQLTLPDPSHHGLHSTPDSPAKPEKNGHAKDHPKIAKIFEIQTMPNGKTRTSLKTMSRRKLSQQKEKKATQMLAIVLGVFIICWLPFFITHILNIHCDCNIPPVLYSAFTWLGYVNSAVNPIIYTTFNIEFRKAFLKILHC
Structure (SMILES),inhibition [1] [%],IC50 [2] [µM],IC50 [3] [µM],IC50 [4] [µM]
COC(=O)[C@@H]1[C@H]2C[C@@H]3N(CC[C@@]34C(=O)N(Cc3cccc(OC)c3)c3ccccc34)C[C@@H]2CC[C@@H]1OCc1cccc(OC)c1,9,,,
COC(=O)[C@@H]1[C@H]2C[C@@H](c3[nH]c4ccccc4c3CCn3cc(-c4cccc(Cl)c4)nn3)N(C#N)C[C@@H]2CC[C@@H]1O,,8.47,7.94,0.18
